From patent publication US20060147992A1, “Method for detection of bioactive peptides” (priority 2002, published 2006)

Test system: platelets
Assay: luminometric determination of collagen-induced ATP release from platelets
Assay type: cell-based
Settings: platelet rich plasma, 2 μg/ml collagen, RGDS 30 μM; p<0.002 versus collagen alone
Description: Miniaturised (96 well format) high-throughput screening assays capable of assessing platelet activation that are suitable for screening potential anti-thrombotic agents have been developed. The primary assay is based on the phenomenon that platelet activation results in a substantial release of ATP from dense granules. Released ATP is then rapidly quantitated in a plate reader using bioluminescence and is proportional to the extent of platelet activation.
Platelet rich plasma was stimulated by automated injection of 2 μg/ml collagen in the presence or absence of commercially available RGDS (30 μM). Relative light output was then measured automatically in a BMG Fluostar plate reader.
Fibrinogen was digested with either Lys-C (A) or trypsin (B) prior to fractionation as described in FIGS. 2 and 3.

RGDS
inhibition of collagen-induced ATP release: 30%
